From US7795226B2, “Control of radiation injury” (Biotempt B.V., priority 2006, dated 2010)

Assays:
[1] = system: mice after Whole Body Irradiation; test: Dose Reduction Factor (DRF) test, escalating WBI doses; type: in vivo; conditions: for Percent alive at day 30 / Percent dead at day 30 / The absolute number of animals alive at 30 days post WBI: 10 mg/kg s.c. single dose at day 3
Protocol: Escalating doses of Whole Body Irradiation (WBI), with one single exposure given to any particular cohort, and the exposure dose going progressively higher, for each subsequent cohort. A single dose of peptide EA-230 (AQGV (SEQ ID NO:120)) was administered subcutaneously, but with treatment delayed until three days (72 hours) after the WBI. The test is called the Dose Reduction Factor (“DRF”), which is defined as ratio between the LD50 of the treated group to the LD50 of the control group. The LD50 refers to that dose which is lethal to 50% of the animals tested. An acceptable DRF value is 1.20.
In this example we report on escalating dose studies of Whole Body Irradiation (WBI) with one single exposure given to any particular cohort, and the exposure dose going progressively higher for each subsequent cohort. A single dose of peptide AQGV (SEO ID NO:120) (10 mg/kg) was administered subcutaneously, but with treatment delayed until three days (72 hours) after the WBI. The test is called the Dose Reduction Factor (“DRF”), which is defined as ratio between the LD50 of the treated group to the LD50 of the control group. The LD50 refers to that dose which is lethal to 50% of the animals tested.
An acceptable DRF ratio is a factor of at least 1.10; but preferred is at least 1.20 or even at least 1.25.

[2] = system: C57B1/6 mice after Whole Body Irradiation; test: Whole Body Irradiation 8.6 Gy, treatment from three hours after WBI; type: in vivo
Protocol: “WBI” stands for Whole Body Irradiation. Radiation damage protection in vivo was assessed after WBI (6.5 to 9.8 Gy, Philips MG 30 at 81 cGy/min) on anesthetized C57B1/6 mice, and survival differences were measured by Kaplan-Meirer analysis. All groups of mice got the first injection with peptide or vehicle (control animals) three hours after the WBI. The group that got a placebo injection experienced 80% mortality, as predicted in this model. The dose of radiation of 8.6 Gray (=8.6 Gy) is known, in this species, to cause about an 80% mortality, so it is called the LD80 (lethal dose for 80%). The deaths started around Day 10, which is typical for what happens in WBI to animals or humans. By around Day 10, the gut lining is so damaged and leaky from the radiation that bacteria get into the circulation and cause gastrointestinal syndrome, and the bone marrow is so damaged that there is an insufficient number of white blood cells to fight the infection (“Bone Marrow Syndrome”), and death ensues. The group with “x” as the symbol got the first injection IV, and the second injection subcutaneously (SC) three hours after that first injection. 100% of these animals survived. […] To an outside observer, they would look like perfectly normal mice. The group with the triangle symbol got its first injection of the peptide via the SC route. Then it got additional SC injections every 48 hours, for a total of three doses (in addition to the first dose), meaning, on Day 3, Day 5, and Day 7. […] The group with the square symbol was identical in procedures to the group with the triangle symbol, except that the 48 hour SC injections continued on until a total of six doses had been injected (in addition to the first dose). So the dosing continued on until Day 13. […] When the animals got lower-level treatment (SC only), if the treatment was prolonged until the second week, here again, there was complete protection.
The group that got a placebo injection experienced 80% mortality, as predicted in this model. The dose of radiation given (8.6 Gray =8.6 Gy) is known, in this species, to cause about an 80% mortality, so it is called the LD80 (lethal dose for 80%). The deaths starting around Day 10, which is typical for what happens in WBI to animals or humans. By around Day 10, the gut lining is so damaged and leaky from the radiation that bacteria get into the circulation and cause sepsis because of Gastrointestinal (GI) Syndrome, and the bone marrow is so damaged that there is an insufficient number of white blood cells to fight the infection (“Bone Marrow Syndrome”), and death ensues.
A first group of peptide-treated mice (group with “x” as the symbol in FIG. 1) got the first injection with AQGV (SEO ID NO:120) IV, and the second injection subcutaneously (SC) three hours after that first injection.
A second group of mice got its first injection of the peptide via the SC route. Then it got additional SC injections every 48 hours, for a total of three doses (in addition to the first dose), meaning, on Day 3, Day 5, and Day 7.
The third group of mice was identical in procedures to the group with the second group, except that the q48 hour SC injections continued on until a total of six doses had been injected (in addition to the first dose). So the dosing continued on until Day 13.

[3] = first SC injection three hours after WBI, then SC every 48 hours, six additional doses
[4] = first injection IV three hours after WBI, second SC three hours later

## AQGV
[1]; 10 mg/kg s.c. single dose 72 hours after WBI, LD50 treated / LD50 control
  Dose Reduction Factor (factor by which the radiation dose has to be increased to kill 50% of the animals): 1.25
[1]; 10 mg/kg s.c. single dose 72 hours after WBI, day 30
  radiation dose that kills 50% of the treated animals (LD50): ~10.4 Gy
[1]; WBI 8.6 Gy
  Percent alive at day 30: 100%
  Percent dead at day 30: 0%
  The absolute number of animals alive at 30 days post WBI: 20
[1]; WBI 9.2 Gy
  Percent alive at day 30: 100%
  Percent dead at day 30: 0%
  The absolute number of animals alive at 30 days post WBI: 10
[1]; WBI 9.8 Gy
  Percent alive at day 30: 100%
  Percent dead at day 30: 0%
  The absolute number of animals alive at 30 days post WBI: 10
[1]; WBI 10.4 Gy
  Percent alive at day 30: 40%
  Percent dead at day 30: 60%
  The absolute number of animals alive at 30 days post WBI: 4
[1]; WBI 11.0 Gy
  Percent alive at day 30: 0%
  Percent dead at day 30: 100%
  The absolute number of animals alive at 30 days post WBI: 0
[2]; [3]
  mortality after WBI (in words): no mortality whatsoever
  signs of sickness after WBI (in words): showed no signs of sickness
[2]; first SC injection three hours after WBI, then SC every 48 hours, three additional doses
  mortality after WBI (in words): only one of these animals died
[2]; [4]
  signs of sickness after WBI (in words): did not show any signs of sickness at all
  survival after WBI: 100%
